Assay results published in ChEMBL document CHEMBL1201862, “PubChem BioAssay data set” (2004).
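Cultured in 96-well plates, cells were exposed to test compound for 48 hours across five concentrations. GI50: concentration for 50% inhibition of growth.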 The source made the active and inactive calls. Cut-off read from the data, not from the text of the source: active = GI50 up to about 1.1 µM and inactive = higher.

Legend:
Test in all cases: inhibition of tumour cell growth, NCI panel, 48 h
OVCAR-3 = system: OVCAR-3
SNB-19 = system: SNB-19
786-0 = system: 786-0
NCI-H226 = system: NCI-H226
SF-295 = system: SF-295
OVCAR-8 = system: OVCAR-8
NCI-H460 = system: NCI-H460
DMS-273 = system: DMS-273
OVCAR-5 = system: OVCAR-5
Hs-578T = system: Hs-578T
DMS-114 = system: DMS-114
UACC-62 = system: UACC-62
UACC-257 = system: UACC-257
HCT-15 = system: HCT-15
SK-MEL-28 = system: SK-MEL-28
SNB-78 = system: SNB-78
NCI-H522 = system: NCI-H522
T47D = system: T47D
TK-10 = system: TK-10
CCRF-CEM = system: CCRF-CEM
MDA-N = system: MDA-N
KM-20L2 = system: KM-20L2
LOX IMVI = system: LOX IMVI
EKVX = system: EKVX
A498 = system: A498
RPMI-8226 = system: RPMI-8226
NCI-H23 = system: NCI-H23
Malme-3M = system: Malme-3M
CAKI-1 = system: CAKI-1
COLO 205 = system: COLO 205
M14 = system: M14
HT-29 = system: HT-29
SK-MEL-5 = system: SK-MEL-5
SF-539 = system: SF-539
MDA-MB-231 = system: MDA-MB-231
HOP-92 = system: HOP-92
SR = system: SR
U-251 = system: U-251
PC-3 = system: PC-3
HOP-18 = system: HOP-18
ACHN = system: ACHN
IGROV-1 = system: IGROV-1
SW-620 = system: SW-620
SN12C = system: SN12C
SNB-75 = system: SNB-75
BT-549 = system: BT-549
DU-145 = system: DU-145
MCF7 = system: MCF7
DLD-1 = system: DLD-1
KM12 = system: KM12
OVCAR-4 = system: OVCAR-4
SK-OV-3 = system: SK-OV-3
RXF 393 = system: RXF 393
XF498 = system: XF498
NCI/ADR-RES = system: NCI/ADR-RES
M19-MEL = system: M19-MEL
SF-268 = system: SF-268
HCT-116 = system: HCT-116
SK-MEL-2 = system: SK-MEL-2
HL-60 = system: HL-60
MDA-MB-435 = system: MDA-MB-435
MOLT-4 = system: MOLT-4
UO-31 = system: UO-31
A549 = system: A549
HCC 2998 = system: HCC 2998
HOP-62 = system: HOP-62
LXFL 529 = system: LXFL 529
K562 = system: K562

In the case of `CC(=O)NC(CCCCN(Cc1ccccc1)C(=O)N(CCCl)N=O)C(=O)NCc1ccccc1` (stereo unspecified), the GI50 (OVCAR-3) is reported as 60.8 µM (inactive), the GI50 (SNB-19) is reported as 16.7 µM (inactive) and the GI50 (786-0) is reported as 0.895 µM (active). For the same compound, the GI50 (NCI-H226) was 43.1 µM (inactive), the GI50 (SF-295) was 7.21 µM (inactive) and the GI50 (OVCAR-8) was 17.4 µM (inactive). For the same compound, the GI50 (NCI-H460) was 2.22 µM (inactive), the GI50 (DMS-273) was > 35.8 µM (inactive) and the GI50 (OVCAR-5) was > 67.6 µM (inactive). The GI50 (Hs-578T) was 22.2 µM (inactive), the GI50 (DMS-114) was > 100 µM (inactive) and the GI50 (UACC-62) was 3.15 µM (inactive). For the same compound, the GI50 (UACC-257) was 24.3 µM (inactive), the GI50 (HCT-15) was over 60.8 µM and the GI50 (SK-MEL-28) was 45.7 µM (inactive). The GI50 (SNB-78) was > 100 µM (inactive), the GI50 (NCI-H522) was 39 µM (inactive) and the GI50 (T47D) was 14.5 µM (inactive). The GI50 (TK-10) was 44.8 µM (inactive), the GI50 (CCRF-CEM) was 17.8 µM (inactive) and the GI50 (MDA-N) was 14.9 µM (inactive). For the same compound, the GI50 (KM-20L2) was > 52.8 µM (inactive), the GI50 (LOX IMVI) was 22.2 µM (inactive) and the GI50 (EKVX) was 61.9 µM (inactive). The GI50 (A498) was > 100 µM (inactive), the GI50 (RPMI-8226) was 41.7 µM (inactive) and the GI50 (NCI-H23) was 27.7 µM (inactive). The GI50 (Malme-3M) was 37.5 µM (inactive), the GI50 (CAKI-1) was > 26.8 µM (inactive) and the GI50 (COLO 205) was 42.2 µM (inactive). The GI50 (M14) was 41.7 µM (inactive), the GI50 (HT-29) was 42 µM (inactive) and the GI50 (SK-MEL-5) was > 100 µM (inactive). The GI50 (SF-539) was 3.38 µM (inactive), the GI50 (MDA-MB-231) was 21.9 µM (inactive) and the GI50 (HOP-92) was 33 µM (inactive). For the same compound, the GI50 (SR) was 1.1 µM (active), the GI50 (U-251) was 11.6 µM (inactive) and the GI50 (PC-3) was > 35.5 µM (inactive). The GI50 (HOP-18) was 25.9 µM (inactive), the GI50 (ACHN) was 14.3 µM (inactive) and the GI50 (IGROV-1) was 39.7 µM (inactive). For the same compound, the GI50 (SW-620) was 18.5 µM (inactive), the GI50 (SN12C) was 34.8 µM (inactive) and the GI50 (SNB-75) was 19.5 µM (inactive). The GI50 (BT-549) was 21.3 µM (inactive), the GI50 (DU-145) was 25.7 µM (inactive) and the GI50 (MCF7) was 16.3 µM (inactive). For the same compound, the GI50 (DLD-1) was > 47.9 µM (inactive), the GI50 (KM12) was 38.5 µM (inactive) and the GI50 (OVCAR-4) was 68.1 µM (inactive). The GI50 (SK-OV-3) was > 54.3 µM (inactive), the GI50 (RXF 393) was 14.7 µM (inactive) and the GI50 (XF498) was > 34.4 µM (inactive). The GI50 (NCI/ADR-RES) was 14.5 µM (inactive), the GI50 (M19-MEL) was > 67.3 µM (inactive) and the GI50 (SF-268) was 3.48 µM (inactive). For the same compound, the GI50 (HCT-116) was > 49.5 µM (inactive), the GI50 (SK-MEL-2) was 44.8 µM (inactive) and the GI50 (HL-60) was 12.4 µM (inactive). The GI50 (MDA-MB-435) was 35.1 µM (inactive), the GI50 (MOLT-4) was 14.3 µM (inactive) and the GI50 (UO-31) was 34.4 µM (inactive). For the same compound, the GI50 (A549) was 22.1 µM (inactive), the GI50 (HCC 2998) was > 100 µM (inactive) and the GI50 (HOP-62) was 17 µM (inactive). The GI50 (LXFL 529) was > 100 µM (inactive) and the GI50 (K562) was 36.6 µM (inactive).
For `CCCCCCCCCCCC(=O)OC[C@H](C[As](=O)(O)O)OC(=O)CCCCCCCCCCC`, the GI50 (OVCAR-3) was 5.92 µM (inactive), the GI50 (SNB-19) was 5.93 µM (inactive) and the GI50 (786-0) was 13.2 µM (inactive). For the same compound, the GI50 (NCI-H226) was 14.8 µM (inactive), the GI50 (SF-295) was 13.4 µM (inactive) and the GI50 (OVCAR-8) was 13 µM (inactive). For the same compound, the GI50 (NCI-H460) was 4.79 µM (inactive), the GI50 (DMS-273) was 3.98 µM (inactive) and the GI50 (OVCAR-5) was 18.2 µM (inactive). For the same compound, the GI50 (Hs-578T) was 2.78 µM (inactive), the GI50 (DMS-114) was 1.95 µM (inactive) and the GI50 (UACC-62) was 2.3 µM (inactive). For the same compound, the GI50 (UACC-257) was 11 µM (inactive), the GI50 (HCT-15) was 8.26 µM and the GI50 (SK-MEL-28) was 3.94 µM (inactive). The GI50 (SNB-78) was 2.94 µM (inactive), the GI50 (NCI-H522) was 2.25 µM (inactive) and the GI50 (T47D) was 15.3 µM (inactive). The GI50 (TK-10) was 3.87 µM (inactive), the GI50 (CCRF-CEM) was 13.7 µM (inactive) and the GI50 (MDA-N) was 4.34 µM (inactive). The GI50 (KM-20L2) was 6.04 µM (inactive), the GI50 (LOX IMVI) was 8.79 µM (inactive) and the GI50 (EKVX) was 10.2 µM (inactive). For the same compound, the GI50 (A498) was 6.31 µM (inactive), the GI50 (RPMI-8226) was 6.03 µM (inactive) and the GI50 (NCI-H23) was 5.98 µM (inactive). The GI50 (Malme-3M) was 2.3 µM (inactive), the GI50 (CAKI-1) was 8.55 µM (inactive) and the GI50 (COLO 205) was 19.4 µM (inactive). The GI50 (M14) was 2.62 µM (inactive), the GI50 (HT-29) was 8.02 µM (inactive) and the GI50 (SK-MEL-5) was 1.99 µM (inactive). For the same compound, the GI50 (SF-539) was 14.2 µM (inactive), the GI50 (MDA-MB-231) was 3.81 µM (inactive) and the GI50 (HOP-92) was 1.75 µM (inactive). For the same compound, the GI50 (SR) was 9.68 µM (inactive), the GI50 (U-251) was 2.36 µM (inactive) and the GI50 (PC-3) was 2.9 µM (inactive). The GI50 (HOP-18) was 7.29 µM (inactive), the GI50 (ACHN) was 2.79 µM (inactive) and the GI50 (IGROV-1) was 1.9 µM (inactive). For the same compound, the GI50 (SW-620) was 14.4 µM (inactive), the GI50 (SN12C) was 3.73 µM (inactive) and the GI50 (SNB-75) was 7.4 µM (inactive). For the same compound, the GI50 (BT-549) was 3.84 µM (inactive), the GI50 (DU-145) was 17.3 µM (inactive) and the GI50 (MCF7) was 8.75 µM (inactive). The GI50 (DLD-1) was 13.2 µM (inactive), the GI50 (KM12) was 8.11 µM (inactive) and the GI50 (OVCAR-4) was 17.7 µM (inactive). The GI50 (SK-OV-3) was 14.7 µM (inactive), the GI50 (RXF 393) was 1.92 µM (inactive) and the GI50 (XF498) was 10.1 µM (inactive). The GI50 (NCI/ADR-RES) was 14.1 µM (inactive), the GI50 (M19-MEL) was 8.18 µM (inactive) and the GI50 (SF-268) was 8.13 µM (inactive). The GI50 (HCT-116) was 8.89 µM (inactive), the GI50 (SK-MEL-2) was 2.68 µM (inactive) and the GI50 (HL-60) was 3.05 µM (inactive). The GI50 (MDA-MB-435) was 2.64 µM (inactive), the GI50 (MOLT-4) was 6.14 µM (inactive) and the GI50 (UO-31) was 16 µM (inactive). For the same compound, the GI50 (A549) was 6.92 µM (inactive), the GI50 (HCC 2998) was 8.13 µM (inactive) and the GI50 (HOP-62) was 14.8 µM (inactive). For the same compound, the GI50 (LXFL 529) was 3.82 µM (inactive) and the GI50 (K562) was 4.89 µM (inactive).
